These are literature values, as cited in patent US20140303119A1, “METHODS, APPARATUS, AND COMPOUNDS FOR THE TREATMENT OF CENTRAL RETINAL VEIN OCCLUSION AND OTHER CONDITIONS” (DiLorenzo Biomedical, LLC, priority 2013, published 2014).

Data set [1] relates to thrombosis of the central retinal vein. As to conditions: given intravenously, small randomized clinical study.
The test system of data set [2] is CRVO. The conditions noted are these: review statement, evidence limited (level B, III).
Data set [3] concerns retinal vein occlusion. As to conditions: patients with retinal vein occlusion, troxerutin versus placebo.
Data set [4] deals with central retinal vein occlusion.
Data set [5] concerns patients with CRVO. The conditions noted are these: 96 patients with CRVO.

For `COC(=O)[C@H](c1ccccc1Cl)N1CCc2sccc2C1` [Clopidrogel, (+)-(S)-methyl 2-(2-chlorophenyl)-2-(6,7-dihydrothieno[3,2-c]pyridin-5(4H)-yl)acetate], the “incidence of blood disorders compared with ticlodipine” value (no need for regular monitoring) was “reduced incidence of blood disorders”.

For the compound `CCCCC[C@H](O)/C=C/[C@@H]1[C@H]2C/C(=C/CCCC(=O)O)O[C@H]2C[C@H]1O` [Prostacyclin], in data set [1], the “progression to neovascularization versus placebo” value is reported as “no significant difference” and the “visual acuity versus placebo” value is given as “no significant difference”.

For the compound `Clc1ccccc1CN1CCc2sccc2C1` [Ticlodipine], the “incidence of very serious hematological toxicity, including neutropenia, thrombocytopenia, and aplastic anemia” value (patients, requires regular monitoring) was 0.5%-3%.

Consider `C[C@@H]1O[C@@H](OC[C@H]2O[C@@H](Oc3c(-c4ccc(OCCO)c(OCCO)c4)oc4cc(OCCO)cc(O)c4c3=O)[C@H](O)[C@@H](O)[C@@H]2O)[C@H](O)[C@H](O)[C@H]1O` [troxerutin], for which the “outcome of CRVO” value in data set [2] is listed as “trend for improvement”. Also, in data set [3], the “macular edema versus placebo” value is listed as “improvement”, the “retinal circulation time versus placebo” value is on record as “improvement” and the “visual acuity versus placebo” value was “improvement”.

Streptokinase: the “patients showing deterioration in vision” value in data set [4] (treated group (continuous infusion followed by warfarin), control group 12 of 20) was 5 of 20. Further, the “patients experiencing massive vitreous hemorrhage with persistence of blindness in those eyes” value in data set [4] (treated group, within 72 hours) is given as 3 of 20.

As to “Tissue plasminogen activator (tPA): Tissue plasminogen activator, fibrinolytic therapy”, in data set [5], the fatal stroke was 1 patient and the severe intraocular bleeding is 3 patients.
